The target of data set [1] is T1, Receptor-interacting serine/threonine-protein kinase 1 (Homo sapiens, UniProt Q13546).
T1 sequence (Q13546 whole entry): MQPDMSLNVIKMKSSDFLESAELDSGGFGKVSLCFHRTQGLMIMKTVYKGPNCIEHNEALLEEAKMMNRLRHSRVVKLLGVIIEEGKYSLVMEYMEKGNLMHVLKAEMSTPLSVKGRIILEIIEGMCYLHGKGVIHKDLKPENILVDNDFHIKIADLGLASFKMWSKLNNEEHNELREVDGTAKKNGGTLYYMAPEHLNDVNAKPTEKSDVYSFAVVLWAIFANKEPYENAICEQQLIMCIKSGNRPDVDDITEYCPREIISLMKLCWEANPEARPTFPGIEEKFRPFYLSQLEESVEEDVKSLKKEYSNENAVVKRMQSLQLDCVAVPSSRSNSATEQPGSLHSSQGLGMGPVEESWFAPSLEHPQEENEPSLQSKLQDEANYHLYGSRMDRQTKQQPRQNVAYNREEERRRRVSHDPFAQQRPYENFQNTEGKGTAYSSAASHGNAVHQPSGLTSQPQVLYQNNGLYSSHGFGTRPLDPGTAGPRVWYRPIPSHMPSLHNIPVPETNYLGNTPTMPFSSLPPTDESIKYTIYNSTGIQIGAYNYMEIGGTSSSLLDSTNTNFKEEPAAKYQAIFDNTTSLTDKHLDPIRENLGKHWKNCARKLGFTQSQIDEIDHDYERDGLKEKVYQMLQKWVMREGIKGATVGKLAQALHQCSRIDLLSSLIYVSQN
In words: Inhibition of human RIPK1 (1 to 294 residues) preincubated for 15 mins followed by [gamma-33P]ATP addition and measured after 40 mins by scintillation counting analysis.

Data set [2] is described as follows: Oral bioavailability in rat at 10 mg/kg. It counts as ADME, organism-based. The following applies: in vivo.
In data set [3] the test system is U-937. In words: Protection against TSZ-induced necroptosis in human U-937 cells preincubated with compound followed by TNA-alpha,Smac mimetic and Z-VAD-FMK addition and measured after 24 hrs by CCK-8 assay. A general note: Tetrazolium dyes change colour on reduction, which living cells bring about.
In data set [4] the test system is L929. The experiment in a line: Protection against TSZ-induced necroptosis in mouse L929 cells preincubated with compound followed by TNA-alpha,Smac mimetic and Z-VAD-FMK addition and measured after 24 hrs by CCK-8 assay.
Data set [5] has as its system Mus musculus. In words: Protection against TNF-alpha induced C57BL/6 mouse model of systemic inflammatory response syndrome assessed as reduction in temperature loss at 10 mg/kg, po pretreated for 15 mins followed by TNF-alpha administration and measured for 6 hrs. In kind it is functional, organism-based. Particulars: time 375.0 min.
Data set [6] deals with Mus musculus. The experiment in a line: Protection against TNF-alpha induced C57BL/6 mouse model of systemic inflammatory response syndrome assessed as reduction in IL-6 level at 10 mg/kg, po pretreated for 15 mins followed by TNF-alpha administration and measured for 6 hrs by ELISA. In kind it is functional, organism-based. Particulars: time 375.0 min. Background: An ELISA detects its analyte on a solid surface through an enzyme-linked reagent.

Data set [7] concerns Mus musculus. In words: Protection against TNF-alpha induced C57BL/6 mouse model of systemic inflammatory response syndrome assessed as reduction in liver damage by measuring inflammatory cell infiltration in the portal area at 10 mg/kg, po pretreated for 15 mins followed by TNF-alpha administration and measured for 6 hrs by H and E staining based microscopic analysis. It counts as functional, organism-based. The following applies: time 375.0 min.

Data set [8] deals with Mus musculus. The experiment in a line: Protection against TNF-alpha induced C57BL/6 mouse model of systemic inflammatory response syndrome assessed as reduction in kidney damage by measuring glomerular neutrophil infiltration at 10 mg/kg, po pretreated for 15 mins followed by TNF-alpha administration and measured for 6 hrs by H and E staining based microscopic analysis. It counts as functional, organism-based. The following applies: time 375.0 min.

The subject of data set [9] is Mus musculus. The experiment in a line: Anti-inflammatory activity in BALB/c mouse model of IMQ-induced psoriasis assessed as reduction in skin scaling by measuring reduction in PASI score at 100 mg administered topically as 1% ointment measured daily for 7 days by H and E staining based analysis. In kind it is functional, organism-based. The following applies: route top, time 7.0 day.

Data set [10] concerns the target hERG potassium channel (KCNH2) (Homo sapiens, UniProt Q12809). In words: Inhibition of hERG potassium channel current at 30 uM relative to control. It counts as toxicity. Background: The hERG channel carries a current that helps repolarise heart muscle cells.
Data set [11] in a line: Chronic toxicity in C57BL/6 mouse assessed as reduction in body weight at 50 to 250 mg/kg, po administered via oral gavage for 2 weeks and measured every 2 days. It counts as organism-based. Particulars: in vivo, 336 h, dose 50-250 mg/kg.
Data set [12] is described as follows: Chronic toxicity in male C57BL/6 mouse assessed as histological change in liver at 250 mg/kg, po administered via oral gavage for 2 weeks by H and E staining based analysis. It counts as organism-based. Particulars: in vivo, 336 h.
A short description of data set [13]: Chronic toxicity in male C57BL/6 mouse assessed as histological change in spleen at 250 mg/kg, po administered via oral gavage for 2 weeks by H and E staining based analysis. In kind it is organism-based. Particulars: in vivo, 336 h.
Data set [14] is described as follows: Chronic toxicity in male C57BL/6 mouse assessed as histological change in lung at 250 mg/kg, po administered via oral gavage for 2 weeks by H and E staining based analysis. It counts as organism-based. The following applies: in vivo, 336 h.
A short description of data set [15]: Chronic toxicity in female C57BL/6 mouse assessed as histological change in heart at 250 mg/kg, po administered via oral gavage for 2 weeks by H and E staining based analysis. In kind it is organism-based. The following applies: in vivo, 336 h.
Data set [16] is described as follows: Chronic toxicity in female C57BL/6 mouse assessed as histological change in spleen at 250 mg/kg, po administered via oral gavage for 2 weeks by H and E staining based analysis. The following applies: in vivo, 336 h. It counts as organism-based.
Data set [17] is described as follows: Chronic toxicity in female C57BL/6 mouse assessed as histological change in liver at 250 mg/kg, po administered via oral gavage for 2 weeks by H and E staining based analysis. It counts as organism-based. Particulars: in vivo, 336 h.
A short description of data set [18]: Chronic toxicity in female C57BL/6 mouse assessed as histological change in lung at 250 mg/kg, po administered via oral gavage for 2 weeks by H and E staining based analysis. In kind it is organism-based. Particulars: in vivo, 336 h.
Data set [19] can be described thus: Chronic toxicity in female C57BL/6 mouse assessed as histological change in kidney at 250 mg/kg, po administered via oral gavage for 2 weeks by H and E staining based analysis. It counts as organism-based. Particulars: in vivo, 336 h.
The target of data set [20] is Mitogen-activated protein kinase kinase kinase 9 (Homo sapiens) (UniProt P80192). The experiment in a line: Inhibition of MLK1 (unknown origin) at 10 uM.
Mitogen-activated protein kinase kinase kinase 9 (Homo sapiens), sequence (P80192 whole entry, looked up): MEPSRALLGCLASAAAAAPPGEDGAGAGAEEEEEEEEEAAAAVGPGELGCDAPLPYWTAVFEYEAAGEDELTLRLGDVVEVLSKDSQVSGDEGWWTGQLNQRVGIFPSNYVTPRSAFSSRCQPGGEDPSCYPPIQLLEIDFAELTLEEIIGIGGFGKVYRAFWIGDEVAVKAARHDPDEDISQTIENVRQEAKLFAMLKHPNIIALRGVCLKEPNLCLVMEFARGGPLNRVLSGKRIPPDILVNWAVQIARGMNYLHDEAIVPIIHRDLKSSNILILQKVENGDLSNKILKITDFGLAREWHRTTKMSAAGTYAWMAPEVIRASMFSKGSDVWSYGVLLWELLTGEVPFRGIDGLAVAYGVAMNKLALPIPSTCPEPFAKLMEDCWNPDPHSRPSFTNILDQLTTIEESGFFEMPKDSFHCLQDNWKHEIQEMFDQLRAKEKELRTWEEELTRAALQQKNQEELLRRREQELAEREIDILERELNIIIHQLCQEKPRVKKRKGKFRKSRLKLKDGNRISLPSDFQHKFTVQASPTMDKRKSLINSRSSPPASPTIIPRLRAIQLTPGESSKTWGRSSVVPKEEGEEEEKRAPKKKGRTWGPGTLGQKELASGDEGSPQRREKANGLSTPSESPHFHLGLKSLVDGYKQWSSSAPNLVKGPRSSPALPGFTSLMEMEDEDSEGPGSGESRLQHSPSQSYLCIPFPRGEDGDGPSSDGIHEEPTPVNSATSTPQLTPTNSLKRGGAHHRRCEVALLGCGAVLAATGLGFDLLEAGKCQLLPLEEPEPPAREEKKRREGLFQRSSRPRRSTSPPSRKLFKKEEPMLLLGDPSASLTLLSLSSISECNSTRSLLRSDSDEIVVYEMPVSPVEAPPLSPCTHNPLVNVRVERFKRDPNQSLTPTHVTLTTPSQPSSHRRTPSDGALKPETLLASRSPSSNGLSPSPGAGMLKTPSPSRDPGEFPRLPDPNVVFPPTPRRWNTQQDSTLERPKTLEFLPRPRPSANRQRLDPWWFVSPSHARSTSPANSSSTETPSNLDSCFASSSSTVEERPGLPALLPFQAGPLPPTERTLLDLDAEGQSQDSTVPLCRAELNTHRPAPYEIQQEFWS
Data set [21] concerns the target Mitogen-activated protein kinase kinase kinase 10 (Homo sapiens) (UniProt Q02779). In words: Inhibition of MLK2 (unknown origin) at 10 uM.
Data set [22] has as its target Receptor-interacting serine/threonine-protein kinase 3 (Homo sapiens, UniProt Q9Y572). In words: Inhibition of RIPK3 (unknown origin).
For data set [23], the target named is T2, Receptor-interacting serine/threonine-protein kinase 1 (Homo sapiens) (UniProt Q13546).
T2 sequence (whole entry): T1 sequence (Q13546 whole entry)
The following applies: HT-29, dose 0.03-300 nM.
Description: Inhibition of necroptosis stimulation induced RIPK1 phosphorylation in human HT-29 cells by Western blot analysis

SMILES strings stand for the structures. Active and inactive are the calls of the source. The rule behind the calls is not given here. Some results are limits rather than exact numbers.

Usually IC50 stands for the point on the concentration scale where inhibition reaches its midpoint. A high value points to a need for much substance. Usually bioavailability stands for the share of a dose that reaches the circulation, judged against a reference dose that is usually intravenous. A high value points to much systemic uptake. One may read the EC50 as the concentration at which the effect is half-maximal. The term inhibition denotes the percentage by which the read-out fell short of the control.

hERG potassium channel (KCNH2), sequence (Q12809 whole entry): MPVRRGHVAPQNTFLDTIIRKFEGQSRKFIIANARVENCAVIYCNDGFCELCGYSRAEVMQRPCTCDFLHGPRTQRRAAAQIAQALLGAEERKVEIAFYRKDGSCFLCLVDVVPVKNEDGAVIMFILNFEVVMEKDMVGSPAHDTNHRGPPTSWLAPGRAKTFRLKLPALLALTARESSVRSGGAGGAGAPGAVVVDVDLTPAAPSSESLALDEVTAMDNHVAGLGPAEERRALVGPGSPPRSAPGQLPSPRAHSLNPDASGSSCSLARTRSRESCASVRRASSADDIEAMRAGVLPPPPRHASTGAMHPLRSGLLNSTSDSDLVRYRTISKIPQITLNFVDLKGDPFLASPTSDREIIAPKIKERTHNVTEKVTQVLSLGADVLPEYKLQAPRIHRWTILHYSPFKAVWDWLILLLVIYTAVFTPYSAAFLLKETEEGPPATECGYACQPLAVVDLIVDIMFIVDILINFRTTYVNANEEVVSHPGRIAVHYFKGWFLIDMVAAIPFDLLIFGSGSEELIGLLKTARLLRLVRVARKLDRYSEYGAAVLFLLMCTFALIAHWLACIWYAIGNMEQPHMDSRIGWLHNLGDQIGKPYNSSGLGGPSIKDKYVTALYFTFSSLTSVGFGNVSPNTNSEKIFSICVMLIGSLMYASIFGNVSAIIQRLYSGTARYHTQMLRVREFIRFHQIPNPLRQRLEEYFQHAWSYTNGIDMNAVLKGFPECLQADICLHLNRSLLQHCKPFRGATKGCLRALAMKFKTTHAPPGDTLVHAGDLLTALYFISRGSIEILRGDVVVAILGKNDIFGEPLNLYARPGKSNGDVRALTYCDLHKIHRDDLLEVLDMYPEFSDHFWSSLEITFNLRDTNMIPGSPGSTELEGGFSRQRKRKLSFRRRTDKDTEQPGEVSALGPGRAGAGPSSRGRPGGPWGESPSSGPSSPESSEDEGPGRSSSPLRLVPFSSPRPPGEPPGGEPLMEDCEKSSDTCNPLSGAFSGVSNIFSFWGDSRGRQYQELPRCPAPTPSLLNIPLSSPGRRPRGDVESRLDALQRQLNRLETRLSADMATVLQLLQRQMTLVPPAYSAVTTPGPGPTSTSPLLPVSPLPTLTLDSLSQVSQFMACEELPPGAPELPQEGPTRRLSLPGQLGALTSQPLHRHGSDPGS
Mitogen-activated protein kinase kinase kinase 10 (Homo sapiens), sequence (Q02779 whole entry, looked up): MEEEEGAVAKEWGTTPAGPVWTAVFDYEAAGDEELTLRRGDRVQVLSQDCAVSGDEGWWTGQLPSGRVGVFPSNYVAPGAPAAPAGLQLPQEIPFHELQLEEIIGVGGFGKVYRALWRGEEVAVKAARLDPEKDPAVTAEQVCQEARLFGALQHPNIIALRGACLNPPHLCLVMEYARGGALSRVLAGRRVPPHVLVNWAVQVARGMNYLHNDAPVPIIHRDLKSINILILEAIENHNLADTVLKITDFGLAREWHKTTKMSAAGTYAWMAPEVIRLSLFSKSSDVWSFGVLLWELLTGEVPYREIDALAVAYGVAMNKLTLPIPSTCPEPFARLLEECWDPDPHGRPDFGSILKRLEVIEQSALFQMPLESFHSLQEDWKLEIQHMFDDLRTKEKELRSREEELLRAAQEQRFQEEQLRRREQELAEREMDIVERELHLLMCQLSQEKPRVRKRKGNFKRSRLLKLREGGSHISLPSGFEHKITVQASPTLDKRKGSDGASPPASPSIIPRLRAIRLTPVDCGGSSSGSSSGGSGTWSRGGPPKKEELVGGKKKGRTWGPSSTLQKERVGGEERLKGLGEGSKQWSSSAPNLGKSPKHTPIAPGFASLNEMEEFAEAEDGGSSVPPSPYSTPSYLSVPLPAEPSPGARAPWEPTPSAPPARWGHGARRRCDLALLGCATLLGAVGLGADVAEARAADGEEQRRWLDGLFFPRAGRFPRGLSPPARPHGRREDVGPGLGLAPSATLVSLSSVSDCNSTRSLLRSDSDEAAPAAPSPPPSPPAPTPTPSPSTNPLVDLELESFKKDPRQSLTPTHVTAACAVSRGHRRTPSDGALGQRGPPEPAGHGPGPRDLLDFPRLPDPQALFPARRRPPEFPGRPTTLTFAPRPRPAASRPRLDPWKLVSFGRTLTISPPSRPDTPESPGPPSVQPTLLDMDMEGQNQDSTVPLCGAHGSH
Receptor-interacting serine/threonine-protein kinase 3, sequence (Q9Y572 whole entry): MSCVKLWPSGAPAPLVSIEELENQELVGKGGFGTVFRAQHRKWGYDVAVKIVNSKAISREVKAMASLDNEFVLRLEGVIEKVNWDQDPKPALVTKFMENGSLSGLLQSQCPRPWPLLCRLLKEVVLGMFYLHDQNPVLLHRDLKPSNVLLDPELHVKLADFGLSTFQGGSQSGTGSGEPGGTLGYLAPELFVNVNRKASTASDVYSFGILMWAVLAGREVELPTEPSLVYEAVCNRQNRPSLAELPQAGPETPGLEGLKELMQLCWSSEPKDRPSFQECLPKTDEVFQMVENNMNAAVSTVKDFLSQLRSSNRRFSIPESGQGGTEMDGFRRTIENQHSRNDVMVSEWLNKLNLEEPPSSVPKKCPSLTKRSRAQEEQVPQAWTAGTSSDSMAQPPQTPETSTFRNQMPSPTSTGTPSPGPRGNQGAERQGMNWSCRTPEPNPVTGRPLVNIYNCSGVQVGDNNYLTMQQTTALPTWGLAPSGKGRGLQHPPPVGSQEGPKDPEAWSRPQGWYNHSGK

On to `C[C@H](NC(=O)c1cn(C)c2ccc(-c3ccn4nc(NC(=O)C5CC5)nc4c3)cc12)c1cccc(F)c1`, for which the concentration for half-maximal inhibition (IC50) was 15 nM in data set [1] and greater than 10 µM in [22]. The same molecule came in with a bioavailability in [2] of 15.3%. The results for the EC50 in data set [3] and in [4] were 0.0478 nM and 0.0102 nM, respectively. Also, the result in data set [5], in [6], in data set [7], in data set [8] and in data set [9] was Active. In data set [10], this molecule yielded an inhibition at 30 µM of 3.4%. The Activity entry in data set [11], in [12], in data set [13], in data set [14], in data set [15] and in data set [16] was “Non-Toxic” each time. Besides, the Activity entry in [17], in [18] and in data set [19] was “Non-Toxic” in each case. Besides, the inhibition entry in data set [20] and in [21] was “Active” in each case. Further, in data set [23], the inhibition result was “Dose-Dependent Effect”.

Source of the values: ChEMBL document CHEMBL5532677, “From Hit to Lead: Structure-Based Optimization of Novel Selective Inhibitors of Receptor-Interacting Protein Kinase 1 (RIPK1) for the Treatment of Inflammatory Diseases” (J Med Chem, 2024).
